{"source": "patent EP1510220B1", "about": "(priority 1993, dated 1994)", "key": {"[1]": {"system": "Vascular smooth muscle cells"}, "[2]": {"system": "B054 cells (baboon smooth muscle cells)", "experiment": "cells", "format": "cell-based", "settings": "for minimal effective concentration: Papio anubis"}, "[3]": {"system": "B054 cells (baboon smooth muscle cells)", "experiment": "cells", "format": "cell-based", "settings": "Papio anubis, read-out: minimum effective dose (MED), protein synthesis assay"}, "Quiescent ED cells": {"system": "Quiescent ED cells", "experiment": "Stimulation of DNA synthesis by mitogens in quiescent ED cells", "format": "cell-based, human", "settings": "[3H]thymidine 16-40 h after stimulation, vs serum-free control; 20% FCS", "description": "Quiescent ED cells were exposed to various mitogens, and stimulation of DNA synthesis was determined by [^3H]thymidine incorporation 16-40 h after stimulation. DNA synthesis was stimulated by 20% FCS by 25±6 fold, compared to control cells that remained in serum-free D-MEM throughout. PDGF-BB stimulated ≈3.0 fold, but PDGF-AA stimulated only 2.0 fold."}, "Quiescent EX cells": {"system": "Quiescent EX cells", "experiment": "Stimulation of DNA synthesis by mitogens in quiescent EX cells", "format": "cell-based, human", "settings": "[3H]thymidine 16-32 h after stimulation, vs serum-free control; 20% FCS, IGF-1 25 ng/ml, EGF and bFGF 100 ng/ml, TGF-beta 10 ng/ml, AII and ET-1 100 nM", "description": "Quiescent EX cells were then exposed to various mitogens, and stimulation of DNA synthesis was determined by incorporation of [^3H]thymidine 16-32 h after stimulation. DNA synthesis was stimulated by 20% FCS by 8.0±1.5 fold, compared to control cells that remained in serum-free D-MEM throughout. PDGF-BB and PDGF-AA caused a ≈ 3.0 fold stimulation of DNA synthesis. Insulin-like growth factor (IGF-1; 25 ng/ml) provided a 1.2 fold stimulation."}}, "note": "Read-outs that look alike come from different tables or passages of the source. Ends that are not written are not given here."}
{"compound": "CN[C@@H]1C[C@H]2O[C@@](C)([C@@H]1OC)n1c3ccccc3c3c4c(c5c6ccccc6n2c5c31)C(=O)NC4", "note": "[staurosporin]", "values": [{"measurement": "cytotoxicity grade", "setting": "[1]", "result": 2}, {"measurement": "minimal effective concentration", "setting": "[2]; 5 min, read-out: minimum effective dose (MED), DNA assay", "result": 0.001, "unit": "µg/mL"}, {"measurement": "minimal effective concentration", "setting": "[2]; 24 h, read-out: minimum effective dose (MED), DNA synthesis assay", "result": 0.001, "unit": "µg/mL"}, {"measurement": "minimal effective concentration", "setting": "[3]; 5 min", "result": 0.1, "unit": "µg/mL"}, {"measurement": "minimal effective concentration", "setting": "[3]; 24 h", "result": 0.01, "unit": "µg/mL"}]}
{"compound": "endothelin-1 (CSCSSLMDKECVYFCHLDIIW; ends and bridges not checked; cysteine pairing not given here; UniProt P05305 53-73, looked up) [ET-1]", "values": [{"measurement": "stimulation of DNA synthesis", "setting": "Quiescent ED cells", "result": "did not stimulate DNA synthesis"}, {"measurement": "stimulation of DNA synthesis", "setting": "Quiescent EX cells", "result": "did not significantly stimulate DNA synthesis"}]}
{"compound": "CC(=O)O[C@@H]1/C=C\\[C@@](C)(O)C(=O)[C@@H](C)C/C=C\\[C@H]2[C@H](O)C(C)=C(C)[C@H]3C(Cc4ccccc4)NC(=O)[C@]132", "note": "(stereo partly shown) [cytochalasin C]", "values": [{"measurement": "minimum effective dose (MED), DNA synthesis assay", "setting": "[2]", "result": 0.01, "unit": "µg/mL"}]}
{"compound": "CC[C@H](C)[C@H](NC(=O)[C@H](Cc1ccc(O)cc1)NC(=O)[C@@H](NC(=O)[C@H](CCCNC(=N)N)NC(=O)[C@@H](N)CC(=O)O)C(C)C)C(=O)N[C@@H](Cc1cnc[nH]1)C(=O)N1CCC[C@H]1C(=O)N[C@@H](Cc1ccccc1)C(=O)O", "note": "[AII, angiotensin II]", "values": [{"measurement": "stimulation of DNA synthesis", "setting": "Quiescent ED cells", "result": "did not stimulate DNA synthesis"}, {"measurement": "stimulation of DNA synthesis", "setting": "Quiescent EX cells", "result": "did not significantly stimulate DNA synthesis"}]}
